Source: ChEMBL document CHEMBL1201862, “PubChem BioAssay data set” (2004)
One block for each compound: values may come before it. The source made the active and inactive calls.

Columns and labels:
[1] = inhibitors of intracellular T. cruzi replication, confirmation, NIH3T3 host cells, beta-gal luminescence (AID 2044); assay type: functional, cell-based;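 also: intracellular parasites grown in NIH/3T3 mouse fibroblasts as host cells; luminescent beta-galactosidase reporter signal from transgenic T. cruzi replicating inside host cells; inhibitors lower the luminescence signal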
[2] = target: Dual specificity tyrosine-phosphorylation-regulated kinase 1A (Rattus norvegicus, UniProt Q63470); assay type: biochemical, Homo sapiens
[3] = target: ADP-ribosylation factor GTPase-activating protein 1 (Rattus norvegicus, UniProt Q62848); assay: Fluorescence polarization-based biochemical high throughput dose response screening assay to identify inhibitors of ADP-ribosylation factor GTPase activating protein 1 (ARFGAP1).; assay type: functional
Chain of ADP-ribosylation factor GTPase-activating protein 1 (Q62848 whole entry): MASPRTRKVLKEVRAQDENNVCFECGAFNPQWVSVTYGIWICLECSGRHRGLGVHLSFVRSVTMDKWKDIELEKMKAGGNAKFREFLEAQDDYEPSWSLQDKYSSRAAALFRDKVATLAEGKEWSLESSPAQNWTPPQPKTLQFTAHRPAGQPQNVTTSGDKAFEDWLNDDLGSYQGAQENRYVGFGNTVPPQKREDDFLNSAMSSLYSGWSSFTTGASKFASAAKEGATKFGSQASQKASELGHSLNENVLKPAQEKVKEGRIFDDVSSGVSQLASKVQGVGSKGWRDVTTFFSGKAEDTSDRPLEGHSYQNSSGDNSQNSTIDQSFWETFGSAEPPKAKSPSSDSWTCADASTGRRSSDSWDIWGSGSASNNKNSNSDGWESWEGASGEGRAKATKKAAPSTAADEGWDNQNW

[4] = cytotoxicity toward NIH3T3 fibroblasts, dose response, counter-screen, cell-based, ATP luminescence, mouse fibroblasts (AID 2010); assay type: functional;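 also: cells exposed to compound for about 90 hours before reading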
[5] = target: Dual specificity protein kinase CLK1 (Homo sapiens, UniProt P49759); assay: CLK1 kinase inhibitors, off-target check, dose response, selectivity assay for Dyrk1A inhibitor project, biochemical, cherry-picked samples (AID 588811)
Chain of Dual specificity protein kinase CLK1 (P49759 whole entry, the tested form may be a part): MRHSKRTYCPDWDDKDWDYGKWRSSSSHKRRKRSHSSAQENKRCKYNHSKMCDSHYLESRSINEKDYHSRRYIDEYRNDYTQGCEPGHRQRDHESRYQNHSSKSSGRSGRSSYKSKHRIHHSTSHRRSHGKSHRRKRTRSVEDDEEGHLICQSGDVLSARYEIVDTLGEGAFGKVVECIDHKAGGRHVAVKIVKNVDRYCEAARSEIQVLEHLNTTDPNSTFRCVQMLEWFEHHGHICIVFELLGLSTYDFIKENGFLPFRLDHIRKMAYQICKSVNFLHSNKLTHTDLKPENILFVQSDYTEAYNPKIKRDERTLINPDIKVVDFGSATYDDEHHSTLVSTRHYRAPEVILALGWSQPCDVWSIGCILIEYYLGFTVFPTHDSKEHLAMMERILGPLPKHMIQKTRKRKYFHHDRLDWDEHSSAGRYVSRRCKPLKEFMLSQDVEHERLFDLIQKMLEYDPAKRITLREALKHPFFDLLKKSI

[6] = target: Nucleotide-binding oligomerization domain-containing protein 1 (Homo sapiens, UniProt Q9Y239); assay: NOD1 signaling inhibitors, SAR follow-up, revised (AID 2333); assay type: functional
[7] = target: Nucleotide-binding oligomerization domain-containing protein 2 (Homo sapiens, UniProt Q9HC29); assay: NOD2 signaling inhibitors, cell-based, luminescence, uHTS, HEK293 (AID 1566); assay type: functional
Chain of Nucleotide-binding oligomerization domain-containing protein 2 (Q9HC29 whole entry, the tested form may be a part): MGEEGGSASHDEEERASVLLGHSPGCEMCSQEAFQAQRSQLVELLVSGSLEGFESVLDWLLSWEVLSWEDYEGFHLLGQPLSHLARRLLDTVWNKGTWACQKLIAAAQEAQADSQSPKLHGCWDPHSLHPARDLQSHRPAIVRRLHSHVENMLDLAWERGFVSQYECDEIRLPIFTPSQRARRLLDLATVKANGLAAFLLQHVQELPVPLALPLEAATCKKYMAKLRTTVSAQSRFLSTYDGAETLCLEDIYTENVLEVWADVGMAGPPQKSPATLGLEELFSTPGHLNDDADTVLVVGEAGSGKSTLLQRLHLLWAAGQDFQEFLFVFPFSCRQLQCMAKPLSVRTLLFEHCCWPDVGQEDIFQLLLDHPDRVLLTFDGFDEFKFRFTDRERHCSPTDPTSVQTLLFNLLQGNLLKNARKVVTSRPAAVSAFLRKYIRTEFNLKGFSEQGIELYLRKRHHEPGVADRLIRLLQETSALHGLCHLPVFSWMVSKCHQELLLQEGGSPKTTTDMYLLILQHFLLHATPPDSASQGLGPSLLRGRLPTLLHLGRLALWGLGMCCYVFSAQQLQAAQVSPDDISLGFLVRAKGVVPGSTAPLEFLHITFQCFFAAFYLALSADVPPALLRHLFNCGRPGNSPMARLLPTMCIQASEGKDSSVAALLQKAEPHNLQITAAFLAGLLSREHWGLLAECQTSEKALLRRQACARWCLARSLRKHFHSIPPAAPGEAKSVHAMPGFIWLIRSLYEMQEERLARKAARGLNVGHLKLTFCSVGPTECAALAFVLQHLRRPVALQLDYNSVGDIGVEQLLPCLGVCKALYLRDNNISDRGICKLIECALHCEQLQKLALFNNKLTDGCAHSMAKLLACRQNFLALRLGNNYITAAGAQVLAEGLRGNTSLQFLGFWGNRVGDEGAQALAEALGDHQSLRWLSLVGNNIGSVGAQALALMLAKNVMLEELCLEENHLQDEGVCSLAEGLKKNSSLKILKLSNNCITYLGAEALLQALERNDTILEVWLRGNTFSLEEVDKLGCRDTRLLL

[8] = target: T1, Corticotropin-releasing factor receptor 2/Corticotropin-releasing factor-binding protein (Homo sapiens, UniProt P24387+Q13324); assay: Dose Response confirmation of uHTS hits for small molecule antagonists of the CRF-binding protein and CRF-R2 receptor complex.; assay type: functional; details: read-out: IC50_Mean
T1 sequence (Q13324 whole entry): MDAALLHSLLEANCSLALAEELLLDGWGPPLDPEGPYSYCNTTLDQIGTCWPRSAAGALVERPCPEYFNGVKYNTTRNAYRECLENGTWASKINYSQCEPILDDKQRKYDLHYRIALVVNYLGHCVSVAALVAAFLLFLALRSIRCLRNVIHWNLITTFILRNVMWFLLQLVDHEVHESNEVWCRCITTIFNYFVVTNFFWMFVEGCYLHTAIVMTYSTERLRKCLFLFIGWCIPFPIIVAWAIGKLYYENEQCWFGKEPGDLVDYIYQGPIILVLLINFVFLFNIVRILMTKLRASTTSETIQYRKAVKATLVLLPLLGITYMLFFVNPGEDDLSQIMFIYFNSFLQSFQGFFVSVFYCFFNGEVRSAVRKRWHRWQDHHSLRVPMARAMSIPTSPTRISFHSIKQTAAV
T1 sequence (P24387 whole entry): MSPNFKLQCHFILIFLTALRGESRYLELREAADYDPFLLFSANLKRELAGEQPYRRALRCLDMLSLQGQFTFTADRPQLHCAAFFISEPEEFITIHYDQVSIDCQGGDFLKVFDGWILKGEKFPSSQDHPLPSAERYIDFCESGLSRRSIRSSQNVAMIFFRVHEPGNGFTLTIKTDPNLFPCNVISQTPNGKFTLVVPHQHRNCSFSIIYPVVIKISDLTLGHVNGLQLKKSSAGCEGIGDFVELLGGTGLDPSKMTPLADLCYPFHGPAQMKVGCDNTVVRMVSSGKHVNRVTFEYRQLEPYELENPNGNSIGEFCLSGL

HEK293 [9] = assay: cells; assay type: functional, cell-based; details: Homo sapiens
HEK293 [10] = assay: cells; details: Homo sapiens
HEK293 [11] = assay: NOD2 signaling inhibitors in MDP-stimulated cells, cell-based, uHTS, luminescence (AID 2001); assay type: functional; details: Homo sapiens
HEK293 [12] = assay: cells; assay type: functional, cell-based; details: Homo sapiens; remark: listed apart in the source
[13] = CRF-BP/CRF-R2 complex antagonists, dose response, cell-based, uHTS hits, 384-well (AID 651639); assay type: functional, Homo sapiens; details: read-out: IC50_Mean
HEK293 [14] = assay: cells; assay type: functional, cell-based; details: Homo sapiens; remark: listed apart in the source
HEK293 [15] = assay: NOD1 signaling inhibitors, primary screen, cell-based, luminescence, uHTS (AID 1578); assay type: functional; details: Homo sapiens
[16] = target: T1, Corticotropin-releasing factor receptor 2/Corticotropin-releasing factor-binding protein; assay: activators of CRF receptor 2 with binding protein – uHTS hits, confirmation (AID 602473); assay type: functional; details: read-out: EC50_Mean
Tumor necrosis factor = Tumor necrosis factor (Homo sapiens, UniProt P01375); assay: TNFa-triggered NF-kB activation inhibitors, SAR follow-up, cell-based, revised (AID 2337); assay type: functional
Chain of Tumor necrosis factor (P01375 whole entry): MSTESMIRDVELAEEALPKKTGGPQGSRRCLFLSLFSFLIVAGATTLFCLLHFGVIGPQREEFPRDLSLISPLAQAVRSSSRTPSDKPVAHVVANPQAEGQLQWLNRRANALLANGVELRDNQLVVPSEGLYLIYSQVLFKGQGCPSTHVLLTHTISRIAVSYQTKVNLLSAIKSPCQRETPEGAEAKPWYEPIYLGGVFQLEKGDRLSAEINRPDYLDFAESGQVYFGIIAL

[17] = target: Delta-type opioid receptor (Homo sapiens, UniProt P41143); assay: Counterscreen for agonists of heterodimerization of the mu 1 (OPRM1) and delta 1 (OPRD1) opioid receptors: Luminescence-based cell-based high throughput dose response assay to identify agonists of OPRD1 homodimerization. [Related pubchem assays (depositor defined):AID504326, AID504355, AID504692, AID504904, AID504905]; assay type: functional
Chain of Delta-type opioid receptor (P41143 whole entry): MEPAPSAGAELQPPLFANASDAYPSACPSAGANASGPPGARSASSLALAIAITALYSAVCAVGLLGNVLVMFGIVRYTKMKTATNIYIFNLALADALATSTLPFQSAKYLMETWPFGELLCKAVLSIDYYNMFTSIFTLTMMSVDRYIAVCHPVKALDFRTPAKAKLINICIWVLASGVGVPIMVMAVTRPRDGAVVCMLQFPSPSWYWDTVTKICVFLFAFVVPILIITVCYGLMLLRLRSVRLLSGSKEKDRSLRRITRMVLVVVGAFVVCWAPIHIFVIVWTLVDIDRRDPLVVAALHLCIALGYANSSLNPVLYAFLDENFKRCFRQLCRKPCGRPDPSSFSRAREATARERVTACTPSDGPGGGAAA

[18] = target: 5-hydroxytryptamine receptor 5A (Homo sapiens, UniProt P47898); assay: Counterscreen for agonists of OPRM1-OPRD1 heterodimerization: luminescence-based cell-based high throughput dose response assay to identify agonists of 5-hydroxytryptamine (serotonin) 5A receptor (HTR5A). [Related pubchem assays (depositor defined):AID504326, AID504355, AID504692, AID504904, AID504905]; assay type: functional
Chain of 5-hydroxytryptamine receptor 5A (P47898 whole entry): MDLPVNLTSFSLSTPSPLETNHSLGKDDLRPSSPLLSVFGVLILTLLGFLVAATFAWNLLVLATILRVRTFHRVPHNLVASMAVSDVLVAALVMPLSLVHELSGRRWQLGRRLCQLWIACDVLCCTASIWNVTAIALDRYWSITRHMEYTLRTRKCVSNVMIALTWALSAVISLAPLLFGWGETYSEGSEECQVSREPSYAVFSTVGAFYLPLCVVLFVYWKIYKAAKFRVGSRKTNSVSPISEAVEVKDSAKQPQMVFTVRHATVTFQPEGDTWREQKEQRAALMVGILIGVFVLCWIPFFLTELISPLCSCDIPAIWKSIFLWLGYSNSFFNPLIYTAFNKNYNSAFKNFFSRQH

[19] = target: T2, Short transient receptor potential channel 4 (Mus musculus, UniProt Q9QUQ5); assay: mouse TRPC4 channel inhibitors, dose response, cell-based, HEK293 TRPC4/mu-opioid, Fluo-4 calcium (AID 434942); assay type: functional;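 also: potency of inhibitors blocking the TRPC4 calcium response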
T2 sequence (Q9QUQ5 whole entry): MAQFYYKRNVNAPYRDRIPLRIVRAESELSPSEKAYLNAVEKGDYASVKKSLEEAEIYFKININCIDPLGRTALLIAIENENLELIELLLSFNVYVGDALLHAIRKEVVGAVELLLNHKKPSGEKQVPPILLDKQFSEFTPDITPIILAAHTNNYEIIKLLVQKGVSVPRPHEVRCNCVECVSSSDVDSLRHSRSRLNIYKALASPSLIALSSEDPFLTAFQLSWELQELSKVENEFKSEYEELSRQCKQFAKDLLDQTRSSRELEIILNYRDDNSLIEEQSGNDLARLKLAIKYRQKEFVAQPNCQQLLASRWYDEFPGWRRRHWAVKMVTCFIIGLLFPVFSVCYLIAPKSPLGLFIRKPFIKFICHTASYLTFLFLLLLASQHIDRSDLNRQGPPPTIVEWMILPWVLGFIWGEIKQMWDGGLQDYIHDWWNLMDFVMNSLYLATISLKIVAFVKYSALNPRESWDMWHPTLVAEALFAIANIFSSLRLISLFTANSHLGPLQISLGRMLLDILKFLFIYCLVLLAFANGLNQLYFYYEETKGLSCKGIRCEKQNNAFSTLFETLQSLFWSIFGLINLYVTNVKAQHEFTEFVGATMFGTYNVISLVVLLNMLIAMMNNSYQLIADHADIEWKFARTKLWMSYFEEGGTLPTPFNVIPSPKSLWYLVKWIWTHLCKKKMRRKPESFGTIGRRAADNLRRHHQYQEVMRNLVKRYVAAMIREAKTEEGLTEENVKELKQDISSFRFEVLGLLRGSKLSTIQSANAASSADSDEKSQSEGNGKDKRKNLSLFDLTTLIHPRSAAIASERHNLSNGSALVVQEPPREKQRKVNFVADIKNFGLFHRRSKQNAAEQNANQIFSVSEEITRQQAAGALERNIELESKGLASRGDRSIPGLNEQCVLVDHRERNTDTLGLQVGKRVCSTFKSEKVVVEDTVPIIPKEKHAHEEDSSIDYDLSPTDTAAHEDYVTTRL

Mu-type opioid receptor = Mu-type opioid receptor (Homo sapiens, UniProt P35372); assay: Counterscreen for agonists of heterodimerization of the mu 1 (OPRM1) and delta 1 (OPRD1) opioid receptors: Luminescence-based cell-based high throughput dose response assay to identify agonists of OPRM1 homodimerization.; assay type: functional;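 also: U2OS cells expressing OPRM1 and beta-arrestin as split beta-galactosidase partners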
Chain of Mu-type opioid receptor (P35372 whole entry): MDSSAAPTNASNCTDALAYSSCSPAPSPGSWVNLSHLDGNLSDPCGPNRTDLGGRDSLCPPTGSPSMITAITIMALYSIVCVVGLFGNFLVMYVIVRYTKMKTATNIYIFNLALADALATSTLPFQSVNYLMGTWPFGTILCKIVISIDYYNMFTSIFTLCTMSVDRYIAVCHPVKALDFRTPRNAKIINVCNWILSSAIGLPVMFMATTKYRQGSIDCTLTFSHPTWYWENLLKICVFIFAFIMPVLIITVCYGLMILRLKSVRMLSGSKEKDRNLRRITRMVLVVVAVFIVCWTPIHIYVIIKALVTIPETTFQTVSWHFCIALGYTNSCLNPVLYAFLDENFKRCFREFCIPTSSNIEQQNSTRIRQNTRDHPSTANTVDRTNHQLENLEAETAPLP

[20] = target: T3, Alkaline phosphatase, tissue-nonspecific isozyme (Homo sapiens, UniProt P05186); assay: TNAP enzyme activators, dose response, selectivity assay for human IAP activator project, biochemical, TNAP isozyme, human IAP uHTS hits (AID 488886); assay type: functional;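 also: potency of compounds raising TNAP activity as a selectivity check on IAP activators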
T3 sequence (P05186 whole entry): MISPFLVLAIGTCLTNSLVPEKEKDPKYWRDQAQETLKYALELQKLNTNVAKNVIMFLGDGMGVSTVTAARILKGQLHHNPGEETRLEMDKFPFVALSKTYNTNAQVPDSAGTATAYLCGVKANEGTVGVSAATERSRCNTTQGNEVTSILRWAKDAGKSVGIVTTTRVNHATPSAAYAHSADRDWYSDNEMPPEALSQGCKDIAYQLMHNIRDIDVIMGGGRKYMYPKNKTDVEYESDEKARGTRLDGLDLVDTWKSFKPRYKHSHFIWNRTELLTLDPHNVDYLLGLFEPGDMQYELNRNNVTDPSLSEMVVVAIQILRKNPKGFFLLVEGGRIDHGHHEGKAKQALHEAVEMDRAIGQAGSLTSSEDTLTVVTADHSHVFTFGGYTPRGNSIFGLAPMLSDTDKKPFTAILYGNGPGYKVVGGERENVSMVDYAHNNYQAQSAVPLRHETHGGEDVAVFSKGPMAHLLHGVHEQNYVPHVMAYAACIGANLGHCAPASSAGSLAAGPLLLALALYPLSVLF

[21] = target: Intestinal-type alkaline phosphatase (Mus musculus, UniProt P24822); assay: PubChem AID 488874; assay type: functional
Chain of Intestinal-type alkaline phosphatase (Mus musculus, UniProt P24822) (P24822 whole entry): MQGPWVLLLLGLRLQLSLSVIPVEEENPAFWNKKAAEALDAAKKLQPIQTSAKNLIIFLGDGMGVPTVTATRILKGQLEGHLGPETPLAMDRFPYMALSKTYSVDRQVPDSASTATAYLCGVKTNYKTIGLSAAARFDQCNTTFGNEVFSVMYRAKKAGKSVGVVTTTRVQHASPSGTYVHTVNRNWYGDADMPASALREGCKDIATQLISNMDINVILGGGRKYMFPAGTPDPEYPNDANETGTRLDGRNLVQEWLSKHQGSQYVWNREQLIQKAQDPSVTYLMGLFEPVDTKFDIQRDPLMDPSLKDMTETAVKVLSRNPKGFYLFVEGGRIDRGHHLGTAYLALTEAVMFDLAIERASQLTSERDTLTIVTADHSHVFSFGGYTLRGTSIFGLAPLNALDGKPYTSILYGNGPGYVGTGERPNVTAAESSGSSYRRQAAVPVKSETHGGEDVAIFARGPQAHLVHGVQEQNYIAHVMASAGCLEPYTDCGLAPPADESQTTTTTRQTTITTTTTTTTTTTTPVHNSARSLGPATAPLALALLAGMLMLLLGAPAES

[22] = target: T4, Intestinal-type alkaline phosphatase (Homo sapiens, UniProt P09923); assay: human IAP activators, dose response, biochemical, luminescent, uHTS hits, set 2 (AID 488817); assay type: functional;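 also: potency of activators that raise enzyme activity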
T4 sequence (P09923 whole entry): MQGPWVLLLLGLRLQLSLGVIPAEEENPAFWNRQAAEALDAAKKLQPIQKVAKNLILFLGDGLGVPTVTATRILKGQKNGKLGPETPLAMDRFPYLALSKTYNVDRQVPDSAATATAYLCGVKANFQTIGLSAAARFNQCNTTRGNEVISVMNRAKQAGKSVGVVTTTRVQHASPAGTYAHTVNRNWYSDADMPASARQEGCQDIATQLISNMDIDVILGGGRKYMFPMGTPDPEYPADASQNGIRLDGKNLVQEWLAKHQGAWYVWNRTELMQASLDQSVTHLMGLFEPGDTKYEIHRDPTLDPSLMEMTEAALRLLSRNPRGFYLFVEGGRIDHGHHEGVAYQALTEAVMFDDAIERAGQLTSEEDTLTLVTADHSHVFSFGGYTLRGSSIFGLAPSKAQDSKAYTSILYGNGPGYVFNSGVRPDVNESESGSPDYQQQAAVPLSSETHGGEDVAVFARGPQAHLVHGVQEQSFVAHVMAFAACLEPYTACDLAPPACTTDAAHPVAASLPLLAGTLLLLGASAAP

[23] = target: T4, Intestinal-type alkaline phosphatase; assay: human intestinal alkaline phosphatase activators, dose response, biochemical, luminescence, uHTS hits (AID 463120); assay type: functional

Structure (SMILES): O=C(/C=C/c1ccccc1)Nc1nc(-c2ccncc2)cs1
- EC50 [1]: 0.843 µM (active)
- AC50 [2]: 0.103 µM (active)
- IC50 [3]: 28.8 µM (inactive)
- EC50 [4]: 17.6 µM (active)

Structure (SMILES): CC1CCN(S(=O)(=O)c2nnc(NC(=O)c3cccc(Cl)c3)s2)CC1
- IC50 [6]: 5.14 µM (active)
- EC50 [7]: 16.8 µM (active)
- IC50 [8]: 14.6 µM (active)
- IC50 (HEK293 [9]): > 20 µM (inactive)
- IC50 (HEK293 [10]): 17.2 µM (active)
- IC50 (HEK293 [11]): 9.2 µM (active)
- IC50 (HEK293 [12]): > 20 µM (inactive)
- IC50 [13]: > 20 µM (inactive)
- IC50 (HEK293 [14]): 11.1 µM (active)
- EC50 (HEK293 [15]): 2.64 µM (active)
- EC50 [16]: > 53 µM (inactive)
- IC50 (Tumor necrosis factor): 6.64 µM (active)

Now from value to compound:

- AC50 [5]: 0.0101 µM (active)
Structure (SMILES): c1nc(NCC2CCCOC2)c2cc(-c3ccc4c(c3)OCO4)ccc2n1 (stereo not given)

- EC50 [17]: > 92.5 µM (inactive)
- EC50 [18]: > 92.5 µM (inactive)
- EC50 [19]: 3.35 µM (active)
- EC50 (Mu-type opioid receptor): > 92.5 µM (inactive)
Structure (SMILES): O=C(OC1C2CCC1C1CN(CCc3ccccc3)CC12)c1ccccc1 (stereo not given)

- EC50 [20]: 12 µM (active)
- IC50 [21]: 53.9 µM (active)
- EC50 [22]: 13.8 µM (active)
- EC50 [23]: 9.62 µM (active)
Structure (SMILES): O=C(NNC(=S)NCc1ccco1)c1ccccc1Br
